Experimental data as given in patent publication US20180250308A1, “NR2B SELECTIVE NMDA-RECEPTOR ANTAGONISTS FOR TREATMENT OF IMMUNE-MEDIATED INFLAMMATORY DISEASES” (WESTFALISCHE WILHELMS-UNIVERSITAT MUNSTER, priority 2015, published 2018).

Key:
[1] = molecular target: T1, polyamine binding site of the NR2B subunit of the NMDA receptor (Homo sapiens, UniProt Q05586+Q13224); test: Filtration-based receptor binding assay with [3H]-Ifenprodil, NR2B subunit; conditions: membranes of L(tk-) cells expressing NR1-1a/NR2B, Ki by Cheng-Prusoff, mean ± SEM, read-out: affinity to the NR2B binding site of the NMDA receptor
T1 construct: host or cells: mouse L(tk-) cells; expression induced with dexamethasone, then membrane homogenate prepared
Protocol: The determination was performed using a filtration-based receptor binding assay on 96-well-multiplates for the polyamine binding site of the NR2B subunit of the NMDA receptor using [^3H]-Ifenprodil as radioligand.
Mouse L(tk-) cells stably transfected with the dexamethasone-inducible eukaryotic expression vectors pMSG NR1-1a, pMSG NR2B in a 1:5 ratio were a generous gift from D. […] Steinhilber (Department of Pharmacy, University of Frankfurt, Germany). The transformed L(tk-) cells were grown in Modified Earl's Medium (MEM) containing 10% of standardized FCS (Biochrom AG, Berlin, Germany). The expression of the NMDA receptor at the cell surface was induced after the cell density of the adherent growing cells had reached approximately 90% of confluency. […]
For the binding assay, the cell pellet was resuspended in PBS buffer and the number of cells was determined using an improved Neubauer's counting chamber (VWR, Darmstadt, Germany). […]
The competitive binding assay was performed with the radioligand [^3H]-Ifenprodil (60 Ci/mmol; Perkin Elmer) using standard 96-well-multiplates (Diagonal, Muenster, Germany). […] The bound radioactivity trapped on the filters was counted in the scintillation analyzer (Microbeta Counter, Perkin Elmer). […] The non-specific binding was determined with 10 μM unlabeled Ifenprodil. […]

σ1 receptor = molecular target: T2, σ1 receptor (Cavia porcellus, UniProt Q60492); test: Binding assay with [3H]-(+)-pentazocine, σ1 receptor; conditions: guinea pig brain membranes, read-out: affinity to the σ1 receptor
T2 construct: Five guinea pig brains (Harlan Winkelmann, Borchen, Germany) were homogenized; tissue Harlan Winkelmann, Borchen, Germany; host or cells: guinea pig brain membrane preparation
Protocol: Five guinea pig brains (Harlan Winkelmann, Borchen, Germany) were homogenized with the potter (500-800 rpm, 10 up-and-down strokes) in 6 volumes of cold 0.32 M sucrose. […] This procedure was repeated twice.
The incubation was terminated by rapid filtration through the presoaked filtermats using a cell harvester.

T2 sequence (Q60492 whole entry): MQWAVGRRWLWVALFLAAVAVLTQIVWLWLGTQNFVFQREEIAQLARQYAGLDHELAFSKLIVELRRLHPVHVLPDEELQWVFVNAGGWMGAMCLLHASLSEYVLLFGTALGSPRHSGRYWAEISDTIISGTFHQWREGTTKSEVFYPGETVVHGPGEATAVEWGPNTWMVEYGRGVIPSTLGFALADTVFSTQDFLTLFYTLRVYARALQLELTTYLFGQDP
T1 sequence (Q13224 27-1484, other chains not shown): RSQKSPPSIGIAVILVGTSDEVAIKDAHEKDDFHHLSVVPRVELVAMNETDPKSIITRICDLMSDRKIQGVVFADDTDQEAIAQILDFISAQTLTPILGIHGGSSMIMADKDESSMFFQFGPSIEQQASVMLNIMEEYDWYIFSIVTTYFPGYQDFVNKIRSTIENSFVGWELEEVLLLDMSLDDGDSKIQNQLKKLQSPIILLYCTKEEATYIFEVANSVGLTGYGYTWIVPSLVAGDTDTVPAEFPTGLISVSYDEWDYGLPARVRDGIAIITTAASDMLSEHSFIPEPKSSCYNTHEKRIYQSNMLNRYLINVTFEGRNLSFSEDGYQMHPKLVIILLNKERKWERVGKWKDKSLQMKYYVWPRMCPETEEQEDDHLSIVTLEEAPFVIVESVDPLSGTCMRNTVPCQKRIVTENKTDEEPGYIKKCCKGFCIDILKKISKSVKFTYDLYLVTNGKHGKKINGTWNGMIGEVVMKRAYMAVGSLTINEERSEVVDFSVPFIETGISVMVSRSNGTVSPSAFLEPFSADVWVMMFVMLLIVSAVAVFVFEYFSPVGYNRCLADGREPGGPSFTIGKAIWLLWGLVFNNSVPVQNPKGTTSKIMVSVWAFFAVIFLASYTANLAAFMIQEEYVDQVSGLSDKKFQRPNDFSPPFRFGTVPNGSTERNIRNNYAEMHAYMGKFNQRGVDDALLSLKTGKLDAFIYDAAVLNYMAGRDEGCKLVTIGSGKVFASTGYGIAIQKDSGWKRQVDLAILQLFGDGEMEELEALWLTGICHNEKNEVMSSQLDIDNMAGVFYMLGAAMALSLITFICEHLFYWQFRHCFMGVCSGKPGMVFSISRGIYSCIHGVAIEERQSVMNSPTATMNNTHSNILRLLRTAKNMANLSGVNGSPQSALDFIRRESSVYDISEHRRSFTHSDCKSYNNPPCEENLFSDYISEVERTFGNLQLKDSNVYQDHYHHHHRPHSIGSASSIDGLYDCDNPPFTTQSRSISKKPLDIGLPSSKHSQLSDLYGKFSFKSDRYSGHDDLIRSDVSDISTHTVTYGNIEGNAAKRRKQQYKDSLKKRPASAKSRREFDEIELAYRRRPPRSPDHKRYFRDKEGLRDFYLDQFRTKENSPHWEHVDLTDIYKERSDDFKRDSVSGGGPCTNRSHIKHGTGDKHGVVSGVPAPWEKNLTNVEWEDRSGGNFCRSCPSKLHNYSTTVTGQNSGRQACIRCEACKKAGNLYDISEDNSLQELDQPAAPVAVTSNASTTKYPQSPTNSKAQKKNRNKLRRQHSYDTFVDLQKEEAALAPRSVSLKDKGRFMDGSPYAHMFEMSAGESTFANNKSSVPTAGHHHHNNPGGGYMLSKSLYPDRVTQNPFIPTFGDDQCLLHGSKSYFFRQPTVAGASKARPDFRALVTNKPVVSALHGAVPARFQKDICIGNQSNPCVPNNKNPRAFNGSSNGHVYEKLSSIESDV

Ki [1]: 15.3 ± 1.2 nM
Ki (σ1 receptor): 194 nM
Structure (SMILES): COc1ccc2c(c1)CCN(CCCCc1ccccc1)CC2O (centres unmarked) [formula (4)]
